Experimental data published in patent US3995059A, “Pharmaceutical compositions containing fatty acid amide derivatives” (Sumitomo Chemical Company, Limited, priority 1966, dated 1976).

Columns and labels:
[1] = Acute oral toxicity, LD50 (Table 2); details: in vivo, mouse, P.O.
Experimental: The extremely low toxicities of the present acid-amide compounds are illustrated in Table 2, in which the acute toxicities of some of the present compounds in mice are listed.
As is seen from Table 2, no fatal case and no significant toxic symptoms were observed even in such large doses (per os) as 0.5 g. per 10 g., namely 50 g./kg. of the body weight. Also, no significant toxic symptoms, or fatal cases, were observed when the amides in amounts of 1, 0.5 or 0.2% in the diet were administered to mice everyday for three weeks. The appetite was normal and digestive functions were unchanged. When the internal organs were inspected by dissection, there was no appreciable change.

[2] = tested on: Serum cholesterol; assay: Serum cholesterol of rabbits fed a cholesterol rich diet; type: in vivo; details: 200 mg/day with cholesterol rich diet
[3] = tested on: total cholesterol value in the blood serum; assay: Total cholesterol in blood serum of mice fed a diet enriched with cholesterol and bile acids (Table 1); type: in vivo; details: 0.2% in diet, oral, 8 to 12 days
Experimental: The effectiveness of the compounds was tested by using mice fed on a specific diet which was enriched with cholesterol and bile acids. […] The amide compound as well was mixed with the specific diet in an amount of 0.2%, and continuously administered orally for 8 to 12 days. Then the total cholesterol value in the blood serum of the animals was evaluated.

[4] = tested on: liver cholesterol; assay: Liver cholesterol (deposition of cholesterol and fat in the liver) of mice fed a cholesterol-rich diet (Table 1); type: in vivo; details: 0.2% in diet, oral, 8 to 12 days
[5] = tested on: Rabbit serum cholesterol; assay: Rabbit serum cholesterol lowering ratio after 9 weeks; type: in vivo; details: control 0%

For `CCCCC/C=C\C/C=C\CCCCCCCC(=O)NC(Cc1ccccc1)c1ccccc1` (stereo not shown), the LD50 [1] was > 50000 mg/kg.
With `CCCCC/C=C\C/C=C\CCCCCCCC(=O)N(C1CCCCC1)C1CCCCC1` [N,N-dicyclohexyl linoleamide] the Serum cholesterol ([2]; 2 weeks, control 250) was 250 mg. %, the Serum cholesterol ([2]; 4 weeks, control 563) was 120 mg. % and the Serum cholesterol ([2]; 6 weeks, control 890) was 62 mg. %. The Serum cholesterol ([2]; 8 weeks, control 1150) was 62 mg. % and the Serum cholesterol ([2]; 10 weeks, control 1750) was 65 mg. %.
In the case of `CC/C=C\C/C=C\C/C=C\CCCCCCCC(=O)NC(Cc1ccccc1)c1ccccc1` (stereo not shown) [drawing 100], the Serum cholesterol ([3]; experiment [XI], control 595) is reported as 275 mg % and the Liver cholesterol ([4]; experiment [XI], control 3451) is reported as 1632 mg/100 g.
Molecule `CC/C=C\C/C=C\C/C=C\CCCCCCCC(=O)NC(CC)c1ccc(OC)cc1` (stereo not shown) [drawing 102] has a Serum cholesterol ([3]; experiment [XI], control 595) of 280 mg % and a Liver cholesterol ([4]; experiment [XI], control 3451) of 870 mg/100 g.
In the case of `CC/C=C\C/C=C\C/C=C\CCCCCCCC(=O)NC(CC)c1ccc(OC)cc1` (stereo not shown) [drawing 103], the Serum cholesterol ([3]; experiment [XI], control 595) is reported as 339 mg % and the Liver cholesterol ([4]; experiment [XI], control 3451) is reported as 1620 mg/100 g.
With `CCCCC/C=C\C/C=C\CCCCCCCC(=O)NC(C)c1ccccc1` (stereo not shown) [drawing 136] the LD50 [1] was > 50000 mg/kg.
For `CCCCC/C=C\C/C=C\CCCCCCCC(=O)NC(C)c1ccc(C)cc1` (stereo not shown) [drawing 138], the LD50 [1] was > 50000 mg/kg.
With `CCCCC/C=C\C/C=C\CCCCCCCC(=O)NC12CC3CC(CC(C3)C1)C2` [drawing 140] the LD50 [1] was > 50000 mg/kg.
Molecule `CCCCC/C=C\C/C=C\CCCCCCCC(=O)NC(C)c1ccccc1` (stereo not shown) [drawing 144] has a Serum cholesterol ([2]; 2 weeks, control 250) of 250 mg. %, a Serum cholesterol ([2]; 4 weeks, control 563) of 130 mg. % and a Serum cholesterol ([2]; 6 weeks, control 890) of 65 mg. %. The Serum cholesterol ([2]; 8 weeks, control 1150) was 60 mg. % and the Serum cholesterol ([2]; 10 weeks, control 1750) was 52 mg. %.
With `CCCCC/C=C\C/C=C\CCCCCCCC(=O)NC(C)c1ccc(C)cc1` (stereo not shown) [drawing 145] the “Rabbit serum cholesterol Towering ratio (after 9 weeks)” value ([5]; 100 mg/kg/day) was 60.1%.
In the case of `CCCCC/C=C\C/C=C\CCCCCCCC(=O)NC(CC)c1ccc(C)cc1` (stereo not shown) [drawing 146], the “Rabbit serum cholesterol Towering ratio (after 9 weeks)” value ([5]; 100 mg/kg/day) is reported as 59.2%.
In the case of `CCCCC/C=C\C/C=C\CCCCCCCC(=O)NC(C)c1ccc(Cl)cc1` (stereo not shown) [drawing 147], the “Rabbit serum cholesterol Towering ratio (after 9 weeks)” value ([5]; 100 mg/kg/day) is reported as 80.1%.
For `CCCCC/C=C\C/C=C\CCCCCCCC(=O)NC(C)c1ccc(Cl)c(Cl)c1` (stereo not shown) [drawing 148], the “Rabbit serum cholesterol Towering ratio (after 9 weeks)” value ([5]; 100 mg/kg/day) was 61.5%.
For `CC/C=C\C/C=C\C/C=C\CCCCCCCC(=O)NC(C)c1ccccc1C` (stereo not shown) [drawing 151], the “Rabbit serum cholesterol Towering ratio (after 9 weeks)” value ([5]; 100 mg/kg/day) was 54.5%.
Molecule `CC(C)CCCCCCCCCCCCCCC(=O)NC(Cc1ccccc1)c1ccccc1` (stereo not shown) [iso-C17 H35 CO] has a Serum cholesterol ([3]; experiment [V], control 372) of 221 mg % and a Liver cholesterol ([4]; experiment [V], control 2640) of 609 mg/100 g.
`CCCCCC=CCC=CCCCCCCCC(=O)NC(Cc1ccccc1)c1ccccc1` (stereo not drawn) [l- C17 H31 CO] showed a Serum cholesterol ([3]; experiment [V], control 372) of 208 mg % and a Liver cholesterol ([4]; experiment [V], control 2640) of 623 mg/100 g.
With `CCCCCCCC/C=C\CCCCCCCC(=O)NC(Cc1ccccc1)c1ccccc1` (stereo not drawn) [l- drawing 33] the Serum cholesterol ([3]; experiment [V], control 372) was 263 mg % and the Liver cholesterol ([4]; experiment [V], control 2640) was 888 mg/100 g.
`CC[C@H](CC[C@@H](C)[C@H]1CC[C@H]2[C@@H]3CC=C4C[C@@H](O)CC[C@]4(C)[C@H]3CC[C@]12C)C(C)C` [β-Sitosterol, reference compound] showed a Serum cholesterol ([2]; 2 weeks, control 250) of 250 mg. %, a Serum cholesterol ([2]; 4 weeks, control 563) of 438 mg. % and a Serum cholesterol ([2]; 6 weeks, control 890) of 875 mg. %. The Serum cholesterol ([2]; 8 weeks, control 1150) was 1063 mg. %, the Serum cholesterol ([2]; 10 weeks, control 1750) was 1200 mg. % and the “Rabbit serum cholesterol Towering ratio (after 9 weeks)” value ([5]; 800 mg/kg/day) was 21.2%.
